# Data: PMC5321639, “Design and pharmacodynamics of recombinant NZ2114 histidine mutants with improved activity against methicillin-resistant Staphylococcus aureus” (AMB Express, 2017)
# Values joined by “and” are separate entries in the source; they are usually repeats but may differ in a detail not shown here. Equal values may be shown once. Read-outs that look alike come from different tables or passages of the source. Marks after values point to notes of the source that are not given here. Where a SMILES comes first, the peptide text is derived from it. Bridges are numbered along the chain shown (N, C = ends).
# How the values were obtained:
# S. aureus ATCC43300 [1] = test: microbe, parasite or virus in culture; format: cell-based, Staphylococcus aureus; conditions: for MICc (MIC of the most effective combination): checkerboard; for FIC: MICc/MICa
# Protocol: The MIC values of four antibiotics (vancomycin, ampicillin, rifampicin and ciprofloxacin) to S. aureus ATCC43300 were tested as the MIC assay described above. The peptide solutions and antibiotics were diluted twofold with the final concentrations ranging from 1/16 to 8× MIC, and added into 96-well plates in a checkerboard fashion (White et al. [1996]). The results of combination were evaluated by calculating the fractional inhibitory concentration index (FICI) of each combination. FIC of H1, H2, H3=MIC of H1, H2, H3, respectively, in combination with antibiotic/MIC of H1, H2, H3 alone; FIC of antibiotics=MIC of antibiotic in combination with peptide/MIC of antibiotic alone; FICI = FIC of H1, H2, H3+ antibiotic, respectively. The result of interaction between two antimicrobial drugs was determined according to: FICI ≤ 0.5 refers to synergy, 0.5 < FICI ≤ 1 refers to additivity, 1 < FICI ≤ 4 refers to indifference, and FICI > 4 is defined as antagonism (Tsuji and Rybak [2006]).
# S. aureus ATCC43300 [2] = test: Effect of temperature on activity (MIC); format: cell-based, Staphylococcus aureus; conditions: then MIC assay
# Protocol: (§1) The peptide solutions were diluted twofold with the range of final concentrations were 0.015–32 µg/ml (0.003–7.273 µM) for purified H1, H2, H3, H6, and H8. The test strains were grown in MHB medium at 37 °C to an OD600 of 0.4 and diluted to 1 × 10^5 CFU/ml. The 10 µl peptide and 90 µl cell suspension were added into each well. All assays were performed in triplicate. The antimicrobial activity of NZ2114 and vancomycin were tested as positive controls. The plates were incubated at 37 °C for 18–24 h. MIC was defined as the lowest peptide concentration of ones at which there was no visible growth (Tian et al. [2009]).
# (§2) The effect of pH, temperature, NaCl concentration and proteinase on the activity of peptides was evaluated. Peptides were diluted twofold, then adjusted to a pH range from 2.0 to 10.0 and incubated at 37 °C for 4 h. The thermal stability of purified peptides was determined after 1-h incubation of peptides at 4, 20, 40, 60, 80 and 100 °C in deionized water, respectively. Aliquots of peptides were incubated in various proteinases solutions [pepsin (pH 2.0), trypsin (pH 8.0), proteinase K (pH 7.0)] at a ratio of 1:10, w/w (proteinase: peptide) at 37 °C for 3 h. For the ion stability, peptides were incubated in 50, 100, 200, 300, 400, 500 mM sodium chloride solutions, respectively. Other methods and conditions were prepared as the MIC assay described above (Li et al. [2015]; Qu et al. [2016]).
# S. aureus ATCC43300 [3] = test: Postantibiotic effect (PAE); format: cell-based, Staphylococcus aureus; conditions: 2 h exposure at 37 °C, 1 × 10^8 CFU/ml, drug removed by 1:10^3 dilution, mean ± SD, n = 3
# Protocol: After 2 h, the drug was removed by diluting 1:10^3 into the MHB and incubated at 37 °C, 250 rpm. The sample was taken to plate counting every 1 h until the bacterial cultures become turbid. The PAE was calculated by the following formula: PAE = T − C, where T is the time needed for the count of CFU in the test culture to increase 1 log10 (10-fold) above the 0 h and C is the time needed for the count of CFU in the untreated control culture to increase 1 log10 above the 0 h (Giguère et al. [2012]).
# S. aureus ATCC43300 [4] = test: Effect of pH on activity (MIC); format: cell-based, Staphylococcus aureus; conditions: then MIC assay
# Protocol: as §1, §2
# [5] = tested on: S. aureus ATCC43300 (MRSA); test: Time-kill curve assay; format: cell-based, Staphylococcus aureus; conditions: 1× MIC
# Protocol: Bacterial culture (S. aureus ATCC43300) was diluted to 1 × 10^5 CFU/ml and H1, H2, and H3 were added. […] The mixture was cultivated at 250 rpm, 37 °C. The 100-µl samples were taken from each flask at 0, 2, 4, 6, 8, 12 and 24 h of incubation, and serial dilutions of samples were plated to count visible colonies. Vancomycin was tested in the same way as a positive control and the culture without antimicrobial agent as a negative control (Xiong et al. [2011]). All experiments were performed in triplicate.
# mice red blood cells = test: Hemolytic assay; format: cell-based; conditions: 0.23 to 7.27 μM (1–32 μg/ml), 37 °C 1 h
# Protocol: The mice blood cells were washed three times in stroke-physiological saline solution (0.9% NaCl) and centrifuged at 4 °C, 2000 rpm for 5 min. A 50-μl cell was diluted to 8% (v/v), added into 96-well plates, and mixed with 50-μl peptide to the final concentrations ranging from […]. The plates were incubated at 37 °C for 1 h, and centrifuged at 4 °C, 5000 rpm for 5 min. The absorbance of supernatants was measured at 540 nm, and 0 and 100% hemolysis was measured by 0.9% NaCl and 0.1% Triton X-100, respectively. The hemolysis percentages were calculated by the following equation: [(Abs540 nm in H1, H2, H3 solution − Abs540 nm in 0.9% NaCl)/(Abs540 nm in 0.1% Triton X-100 − Abs540 nm in 0.9% NaCl)] ×100% (Jiao et al. [2015]).
# S. aureus ATCC43300 [6] = test: Effect of proteinases on activity (MIC); format: cell-based, Staphylococcus aureus; conditions: 1:10 w/w proteinase:peptide, 37 °C for 3 h, then MIC assay
# Protocol: as §1, §2
# S. aureus ATCC43300 [7] = test: Effect of NaCl concentration on activity (MIC); format: cell-based, Staphylococcus aureus
# Protocol: as §1, §2
# [8] = tested on: S. aureus ATCC43300 (MRSA); test: MIC assay; format: cell-based; conditions: Staphylococcus aureus; MHB, 1 × 10^5 CFU/ml, 37 °C, 18–24 h, no visible growth, triplicate
# Protocol: as §1
# S. suis CVCC606 = conditions: data from previous results; ref Jiao et al. [2015]; cited from earlier work
# Source text: (§3) Table 2 MIC assays of H1, H2, H3, H6, H8, NZ2114, and vancomycin against G^+ and G^− pathogens | column: MIC (μM) / Van
# S. suis CVCC3309 = conditions: data from previous results; ref Jiao et al. [2015]; cited from earlier work
# Source text: as §3
# S. suis CVCC3928 = conditions: data from previous results; ref Jiao et al. [2015]; cited from earlier work
# Source text: as §3
# S. aureus ATCC25923 = test: MIC assay; format: cell-based, Staphylococcus aureus; conditions: Staphylococcus aureus, ATCC25923; MHB, 1 × 10^5 CFU/ml, 37 °C, 18–24 h, no visible growth, triplicate
# Protocol: as §1
# S. aureus ATCC6538 = test: MIC assay; format: cell-based, Staphylococcus aureus; conditions: Staphylococcus aureus, ATCC6538; MHB, 1 × 10^5 CFU/ml, 37 °C, 18–24 h, no visible growth, triplicate
# Protocol: as §1
# rabbit and human RBCs = conditions: ref Yang et al. [2011], Zhang et al. [2014]; cited from earlier work
# Source text: Although the values were higher than NZ2114 due to the high charge and hydrophilicity, they were still very low in the range of MICs. […] Owing to contribution from the three pairs of disulfide bond into th ...
compound,measurement,setting,value
"CC[C@H](C)[C@@H]1NC(=O)[C@H](CO)NC(=O)[C@H](CCCCN)NC(=O)[C@@H]2CSSC[C@@H](C(=O)N[C@@H](Cc3ccc(O)cc3)C(=O)O)NC(=O)[C@H](CCCCN)NC(=O)[C@@H]3CSSC[C@H](NC(=O)[C@H](CCCNC(=N)N)NC(=O)[C@H](CC(C)C)NC(=O)[C@H](CC(=O)O)NC(=O)[C@H](CC(=O)O)NC(=O)[C@H](CCC(=O)O)NC(=O)[C@H](CC(N)=O)NC(=O)[C@H](Cc4c[nH]c5ccccc45)NC(=O)[C@@H]4CCCN4C(=O)CNC(=O)[C@H](CC(N)=O)NC(=O)[C@@H](NC(=O)CNC(=O)[C@H](Cc4ccccc4)NC(=O)CN)CSSC[C@H](NC(=O)[C@H](Cc4ccc(O)cc4)NC(=O)CNC(=O)CNC(=O)[C@H](CCCCN)NC(=O)[C@H](Cc4ccc(O)cc4)NC(=O)CNC(=O)[C@H](CCCCN)NC1=O)C(=O)N[C@@H](C)C(=O)N[C@@H](CCCCN)C(=O)NCC(=O)NCC(=O)N[C@@H](Cc1ccccc1)C(=O)N[C@@H](C(C)C)C(=O)N3)C(=O)N[C@@H](Cc1c[nH]cn1)C(=O)N[C@@H](CC(N)=O)C(=O)N[C@@H](CCCCN)C(=O)N2 [H3] (H-GFGCNGPWNEDDLRCHNKCKSIKGYKGGYCAKGGFVCKCY-OH; disulfide 4-30, 15-37, 19-39 (inferred); N-terminus and C-terminus assumed)",MICc (MIC of the most effective combination),S. aureus ATCC43300 [1]; in combination with ampicillin,0.056 µM
same,MICc (MIC of the most effective combination),S. aureus ATCC43300 [1]; in combination with ciprofloxacin,0.056 µM
same,MICc (MIC of the most effective combination),S. aureus ATCC43300 [1]; in combination with rifampicin,0.056 µM
same,MICc (MIC of the most effective combination),S. aureus ATCC43300 [1]; in combination with vancomycin,0.028 µM
same,MIC,"S. aureus ATCC43300 [1]; drug alone, read-out: MICa (MIC of drug alone)",0.056 µM
same,MIC after incubation at 4 °C,S. aureus ATCC43300 [2]; 1 h at 4 °C in deionized water,0.057 µM
same,MIC after incubation at 20 °C,S. aureus ATCC43300 [2]; 1 h at 20 °C in deionized water,0.057 µM
same,MIC after incubation at 40 °C,S. aureus ATCC43300 [2]; 1 h at 40 °C in deionized water,0.057 µM
same,MIC after incubation at 60 °C,S. aureus ATCC43300 [2]; 1 h at 60 °C in deionized water,0.057 µM
same,MIC after incubation at 80 °C,S. aureus ATCC43300 [2]; 1 h at 80 °C in deionized water,0.057 µM
same,MIC after incubation at 100 °C,S. aureus ATCC43300 [2]; 1 h at 100 °C in deionized water,0.114 µM
same,PAE,S. aureus ATCC43300 [3]; 1× MIC,0.55 h and 0.55 ± 0.13 h
same,PAE,S. aureus ATCC43300 [3]; 2× MIC,1.55 ± 0.07 h
same,MIC after incubation at pH2,"S. aureus ATCC43300 [4]; pH 2, 37 °C for 4 h",0.057 μM
same,MIC after incubation at pH4,"S. aureus ATCC43300 [4]; pH 4, 37 °C for 4 h",0.057 μM
same,MIC after incubation at pH6,"S. aureus ATCC43300 [4]; pH 6, 37 °C for 4 h",0.114 μM
same,MIC after incubation at pH8,"S. aureus ATCC43300 [4]; pH 8, 37 °C for 4 h",0.057 μM
same,MIC after incubation at pH10,"S. aureus ATCC43300 [4]; pH 10, 37 °C for 4 h",0.057 μM
same,incubation time after which regrowth occurred,[5],8 h
same,hemolytic activity,mice red blood cells,little or no hemolytic activity
same,MIC after Pepsin,S. aureus ATCC43300 [6]; pepsin (pH 2.0),0.057 µM
same,MIC after Proteinase K,S. aureus ATCC43300 [6]; proteinase K (pH 7.0),0.114 µM
same,MIC after Trypsin,S. aureus ATCC43300 [6]; trypsin (pH 8.0),0.057 µM
same,MIC in 50 mM NaCl,S. aureus ATCC43300 [7]; incubated in 50 mM sodium chloride solution,0.057 µM
same,MIC in 100 mM NaCl,S. aureus ATCC43300 [7]; incubated in 100 mM sodium chloride solution,0.057 µM
same,MIC in 200 mM NaCl,S. aureus ATCC43300 [7]; incubated in 200 mM sodium chloride solution,0.057 µM
same,MIC in 300 mM NaCl,S. aureus ATCC43300 [7]; incubated in 300 mM sodium chloride solution,0.057 µM
same,MIC in 400 mM NaCl,S. aureus ATCC43300 [7]; incubated in 400 mM sodium chloride solution,0.114 µM
CN[C@H](CC(C)C)C(=O)N[C@H]1C(=O)N[C@@H](CC(N)=O)C(=O)N[C@H]2C(=O)N[C@H]3C(=O)N[C@H](C(=O)N[C@H](C(=O)O)c4cc(O)cc(O)c4-c4cc3ccc4O)[C@H](O)c3ccc(c(Cl)c3)Oc3cc2cc(c3O[C@@H]2O[C@H](CO)[C@@H](O)[C@H](O)[C@H]2O[C@H]2C[C@](C)(N)[C@H](O)[C@H](C)O2)Oc2ccc(cc2Cl)[C@H]1O [vancomycin],MIC,[8],0.714 µM
same,MIC,"S. aureus ATCC43300 [1]; Staphylococcus aureus, ATCC43300, read-out: MICa (MIC of drug alone)",0.714 µM
same,MICc (MIC of the most effective combination),S. aureus ATCC43300 [1]; in combination with H1,0.714 µM
same,MICc (MIC of the most effective combination),S. aureus ATCC43300 [1]; in combination with H2,0.714 µM
same,MICc (MIC of the most effective combination),S. aureus ATCC43300 [1]; in combination with H3,0.714 µM
same,FIC,S. aureus ATCC43300 [1]; in combination with H1,1
same,FIC,S. aureus ATCC43300 [1]; in combination with H2,1
same,FIC,S. aureus ATCC43300 [1]; in combination with H3,1
same,MIC,S. suis CVCC606,0.172^b μM
same,MIC,S. suis CVCC3309,0.172^b μM
same,MIC,S. suis CVCC3928,0.172^b μM
same,PAE,S. aureus ATCC43300 [3]; 2× MIC,1.72 ± 0.11 h
same,MIC,S. aureus ATCC25923,0.172 µM
same,MIC,S. aureus ATCC6538,1.43 µM
Plectasin,hemolysis,rabbit and human RBCs,no hemolysis
